Laboratory results from article PMC8604788 (ACS chemical biology, 2021).

Target: T1, proline utilization A (SmPutA), bifunctional PRODH-GSALDH enzyme (Sinorhizobium meliloti, UniProt F7X6I3)
T1 sequence (F7X6I3 1-1233): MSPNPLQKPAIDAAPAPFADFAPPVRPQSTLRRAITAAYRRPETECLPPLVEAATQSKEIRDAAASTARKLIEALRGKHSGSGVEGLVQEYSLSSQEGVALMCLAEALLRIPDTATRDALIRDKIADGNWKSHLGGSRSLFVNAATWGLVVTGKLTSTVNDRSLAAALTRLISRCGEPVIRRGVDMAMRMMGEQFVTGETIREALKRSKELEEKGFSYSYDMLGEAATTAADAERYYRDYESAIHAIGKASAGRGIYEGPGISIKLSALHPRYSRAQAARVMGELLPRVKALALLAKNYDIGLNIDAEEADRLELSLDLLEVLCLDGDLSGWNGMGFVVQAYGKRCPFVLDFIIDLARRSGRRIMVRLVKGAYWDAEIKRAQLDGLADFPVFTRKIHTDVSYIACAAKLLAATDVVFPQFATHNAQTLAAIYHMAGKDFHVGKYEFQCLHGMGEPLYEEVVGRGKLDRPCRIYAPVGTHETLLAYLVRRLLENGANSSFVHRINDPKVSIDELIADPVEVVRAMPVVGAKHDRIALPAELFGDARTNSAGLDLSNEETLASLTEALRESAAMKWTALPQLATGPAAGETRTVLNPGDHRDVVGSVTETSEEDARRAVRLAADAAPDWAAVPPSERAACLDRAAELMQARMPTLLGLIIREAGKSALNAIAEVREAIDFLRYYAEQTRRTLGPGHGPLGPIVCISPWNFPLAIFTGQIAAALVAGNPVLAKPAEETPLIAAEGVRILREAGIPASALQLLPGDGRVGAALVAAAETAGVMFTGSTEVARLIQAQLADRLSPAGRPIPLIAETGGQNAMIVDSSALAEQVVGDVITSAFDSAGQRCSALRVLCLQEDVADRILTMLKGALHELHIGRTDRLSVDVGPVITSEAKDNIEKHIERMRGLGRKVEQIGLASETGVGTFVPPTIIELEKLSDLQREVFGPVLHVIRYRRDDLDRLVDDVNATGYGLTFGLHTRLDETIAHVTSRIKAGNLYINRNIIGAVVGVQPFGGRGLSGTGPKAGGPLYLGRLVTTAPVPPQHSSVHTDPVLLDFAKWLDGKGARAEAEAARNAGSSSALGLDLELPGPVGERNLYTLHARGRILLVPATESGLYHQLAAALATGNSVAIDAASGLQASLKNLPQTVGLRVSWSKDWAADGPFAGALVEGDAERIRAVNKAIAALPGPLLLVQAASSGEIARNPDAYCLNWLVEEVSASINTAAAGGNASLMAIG
Assay: X-ray crystal structures, noncovalent in the dark
Assay type: biochemical

Structure (SMILES): O=C(O)C1SCCS1 [compound 4, 1,3-dithiolane-2-carboxylic acid]
- IC50: 22.4 µM
